The source of these data is patent publication US10301664B2, “Repurposing non-antimicrobial drugs and clinical molecules to treat bacterial infections” (Purdue Research Foundation, priority 2015, dated 2019).

Values after ≈ are worked out from the molar mass of the structure shown. Like-named read-outs stand apart in the source and are kept apart here. Numbered stars: 1 amine (or outer) side, 2 acyl side, 3 side chain; on linkers, the order of the positions; unused ones are H or OH. Bridge positions count the residues as written; N and C are the ends. Square brackets hold non-standard residues; d marks the D form. Peptide text beside a SMILES is read from it. I, II: the chains in the order shown. Actinocin(9to1) = Cc1c2oc3c(C)ccc(C(=O)[*:1])c3nc-2c(C(=O)[*:2])c(N)c1=O; NMeV = CN[C@H](C(=O)O)C(C)C; Sar = CNCC(=O)O

The test system of assay [1] is MRSA USA300. Briefly: Library hits: MIC/MBC against MRSA. The format is cell-based, Staphylococcus aureus.
In assay [2] the test system is vancomycin resistant E. faecium ATCC 700221 (VRE). Briefly: Library hits: MIC/MBC against VRE. The format is cell-based.
In assay [3] the test system is MRSA USA300 persister cells tolerant to ciprofloxacin. In words: Killing of S. aureus persister cells. Format: cell-based. Conditions: added after ciprofloxacin treatment; 48 h.
Assay [4] relates to E. cloacae ATCC BAA-1143. In words: Library hits: MIC against E. cloacae. The format is cell-based.
Assay [5] concerns K. pneumoniae ATCC BAA-1705. In words: Library hits: MIC against K. pneumoniae. The format is cell-based.
Assay [6] deals with A. baumannii ATCC BAA-1605. In words: Library hits: MIC against A. baumannii. The format is cell-based.
The subject of assay [7] is P. aeruginosa ATCC 15442. Briefly: Library hits: MIC against P. aeruginosa. Format: cell-based.
Assay [8] relates to intracellular MRSA. Briefly: Synergy with conventional antimicrobials in infected cell cultures. The format is cell-based. Conditions: compared to monotherapy.
Assay [9] has as its system A. baumannii. Briefly: MIC against G-ve with and without colistin: A. baumannii. Format: cell-based.
In assay [10] the test system is K. pneumonia. Briefly: MIC against G-ve with and without colistin: K. pneumonia. The format is cell-based.
The subject of assay [11] is E.. coli O157:H7. In words: MIC against G-ve with and without colistin: E. coli O157:H7. Format: cell-based. Conditions: E. coli O157:H7.
Assay [12] relates to P. aeruginosa. In words: MIC against G-ve with and without colistin: P. aeruginosa. Format: cell-based.
Assay [13] deals with S. Typhimurium. In words: MIC against G-ve with and without colistin: S. Typhimurium. The format is cell-based.
Assay [14] deals with MRSA USA300. In words: Mouse model of MRSA systemic infection (lethal). The format is in vivo, BALB/c mice. Conditions: oral 25 mg/kg once daily, three doses. From the text: For MRSA systemic infection, neutropenic Female BALB/c mice were inoculated IP with 1×10^9 MRSA USA300.
[15] abbreviates: Staphylococcus aureus, read-out: MIC.
Where [16] appears, read: Staphylococcus aureus, read-out: MBC.

Regarding `Cc1nc2ccc(CN(C)c3ccc(C(=O)N[C@@H](CCC(=O)O)C(=O)O)s3)cc2c(=O)[nH]1` [Raltitrexed], the MIC is above 16 µM in assay [1] (setting [15]) and 2 µM (≈ 0.917 µg/mL) in assay [2] (VRE, read-out: MIC).

For `O=c1[nH]c(=O)n(C2CCCO2)cc1F` (stereo not drawn) [Ftorafur], the MIC in assay [1] (setting [15]) is above 16 µM; in assay [2] (VRE, read-out: MIC), 16 µM (≈ 3.2 µg/mL).

In [1] (Staphylococcus aureus), `COc1cccc2c1C(=O)c1c(O)c3c(c(O)c1C2=O)C[C@@](O)(C(C)=O)C[C@@H]3O[C@H]1C[C@H](N)[C@H](O)[C@H](C)O1` [Daunorubicin] yielded an MBC of 16 µM (≈ 8.44 µg/mL) and an MIC of 16 µM (≈ 8.44 µg/mL). This compound showed an MIC in assay [2] of 8 µM (≈ 4.22 µg/mL).

`CC/C(=C(\c1ccccc1)c1ccc(OCCN(C)C)cc1)c1ccccc1` [Tamoxifen]: the MBC in [1] (setting [16]) came out at 16 µM (≈ 5.94 µg/mL). Besides, the MIC in [1] (setting [15]) is 16 µM (≈ 5.94 µg/mL); in assay [2] (VRE, read-out: MIC) it was above 16 µM.

As for `COc1cccc2c1C(=O)c1c(O)c3c(c(O)c1C2=O)C[C@@](O)(C(=O)CO)C[C@@H]3O[C@H]1C[C@H](N)[C@@H](O)[C@H](C)O1` [Epirubicin], the MBC in [1] (setting [16]) was determined as 64 µM (≈ 34.8 µg/mL). In addition, the MIC worked out at 16 µM (≈ 8.7 µg/mL) in assay [1] (setting [15]) and 8 µM (≈ 4.35 µg/mL) in [2] (VRE, read-out: MIC).

Regarding `CCCCCCNC(=O)n1cc(F)c(=O)[nH]c1=O` [Carmofur], the MBC in [1] (setting [16]) was 4 µM (≈ 1.03 µg/mL). Moreover, the minimum inhibitory concentration (MIC) in assay [1] (setting [15]) was 2 µM (≈ 0.515 µg/mL); in assay [2] (VRE, read-out: MIC), above 16 µM.

In the case of `NS(=O)(=O)c1cc(C(=O)O)c(NCc2ccco2)cc1Cl` [Furosemide], the MIC in assay [1] (setting [15]) is above 16 µM; in [2] (VRE, read-out: MIC), 4 µM (≈ 1.32 µg/mL).

Regarding `Clc1ccc(CO/N=C(\Cn2ccnc2)c2ccc(Cl)cc2Cl)c(Cl)c1` [Oxiconazole], the MBC in assay [1] (setting [16]) was found to be 32 µM (≈ 13.7 µg/mL).

As for `CSc1nc2cc(Cl)c(Oc3cccc(Cl)c3Cl)cc2[nH]1` [Triclabendazole], the MBC in [1] (setting [16]) came to 32 µM (≈ 11.5 µg/mL). The MIC in [1] (setting [15]) is 8 µM (≈ 2.88 µg/mL); in [2] (VRE, read-out: MIC), above 16 µM.

Take `Clc1ccc(COC(Cn2ccnc2)c2ccc(Cl)cc2Cl)c(Cl)c1` (stereo not drawn) [Miconazole]: the MBC in assay [1] (setting [16]) turned out to be 8 µM (≈ 3.33 µg/mL). Also, the minimal inhibitory concentration (MIC) in assay [1] (setting [15]) is 4 µM (≈ 1.66 µg/mL); in assay [2] (VRE, read-out: MIC), above 16 µM.

As to `C=C[C@]1(C)C[C@@H](OC(=O)CS[C@@H]2C[C@H]3CC[C@@H](C2)N3C)[C@]2(C)[C@H](C)CC[C@]3(CCC(=O)[C@H]32)[C@@H](C)[C@@H]1O` [retapamulin], the “effect on number of planktonic persister cells” value in assay [3] was “minimal impact”.

On to `CN(C)CCOc1ccc(/C(=C(/CCCl)c2ccccc2)c2ccccc2)cc1` [Toremifene], for which the MBC in [1] (setting [16]) is 16 µM (≈ 6.5 µg/mL). The MIC in assay [1] (setting [15]) is 16 µM (≈ 6.5 µg/mL); in [2] (VRE, read-out: MIC), 16 µM (≈ 6.5 µg/mL).

In the case of `Clc1ccc(COC(Cn2ccnc2)c2ccc(Cl)cc2Cl)cc1` (stereo not drawn) [Econazole], the MBC in assay [1] (setting [16]) was found to be 32 µM (≈ 12.2 µg/mL). The MIC is 4 µM (≈ 1.53 µg/mL) in assay [1] (setting [15]) and above 16 µM in [2] (VRE, read-out: MIC).

Consider `CCN(CC)CCOc1ccc(C(=C(Cl)c2ccccc2)c2ccccc2)cc1` [Clomid], for which, in assay [1] (setting [16]), the MBC turned out to be 32 µM (≈ 13 µg/mL). Also, the minimum inhibitory concentration (MIC) was 16 µM (≈ 6.5 µg/mL) in [1] (setting [15]) and 16 µM (≈ 6.5 µg/mL) in assay [2] (VRE, read-out: MIC).

As to `CC(C)NCC(O)c1ccc(O)c(O)c1` (stereo not drawn) [Isoproterenol], the minimum bactericidal concentration (MBC) in assay [1] (setting [16]) was found to be 64 µM (≈ 13.5 µg/mL). Moreover, the MIC in [1] (setting [15]) is 16 µM (≈ 3.38 µg/mL); in assay [2] (VRE, read-out: MIC), above 16 µM.

For `c1ccc(-c2ccc(C(c3ccccc3)n3ccnc3)cc2)cc1` (stereo not drawn) [Bifonazole], in assay [1] (setting [16]), the MBC was above 64 µM. Also, the MIC in assay [1] (setting [15]) is 8 µM (≈ 2.48 µg/mL); in [2] (VRE, read-out: MIC), above 16 µM.

As to `CCCCCCCCCOc1ccc2[nH]cc(CCN)c2c1` [5-Nonyloxytryptamine], the MIC/MBC in assay [4] was 16 µM (≈ 4.84 µg/mL); in assay [5], above 16 µM; in [6] it was 16 µM (≈ 4.84 µg/mL); in assay [7] it was above 16 µM. This compound yielded a minimum bactericidal concentration (MBC) in assay [1] (Staphylococcus aureus) of 8 µM (≈ 2.42 µg/mL). Besides, the values for the MIC in assay [1] (Staphylococcus aureus) and in [2] were 4 µM (≈ 1.21 µg/mL) and 8 µM (≈ 2.42 µg/mL), respectively.

`CC[C@H]1OC(=O)[C@H](C)[C@@H](O[C@H]2C[C@@](C)(OC)[C@@H](O)[C@H](C)O2)[C@H](C)[C@@H](O[C@@H]2O[C@H](C)C[C@H](N(C)C)[C@H]2O)[C@](C)(O)C[C@@H](C)C(=O)[C@H](C)[C@@H](O)[C@]1(C)O` [erythromycin]: in [8], the “activity when combined with Auranofin and Ebselen in infected cell cultures” value is given as “synergistic activity”.

For the compound `CC(=O)Nc1nnc(S(N)(=O)=O)s1` [Acetazolamide], the MIC in assay [1] (setting [15]) was above 16 µM; in [2] (VRE, read-out: MIC), 1 µM (≈ 0.222 µg/mL).

For the compound `CC(C)c1ccc2c(c1)c(SC(C)(C)C)c(CC(C)(C)C(=O)O)n2Cc1ccc(Cl)cc1` [MK-886], in [1] (MRSA, read-out: MBC), the MBC came out at 16 µM (≈ 7.55 µg/mL). Besides, the MIC worked out at 8 µM (≈ 3.78 µg/mL) in [1] (MRSA, read-out: MIC) and 8 µM (≈ 3.78 µg/mL) in [2] (VRE, read-out: MIC).

With `O=c1[nH]cc(F)c(=O)[nH]1` [5-Fluorouracil], the MBC in [1] (setting [16]) was 16 µM (≈ 2.08 µg/mL). For the same compound, the minimal inhibitory concentration (MIC) in [1] (setting [15]) is 4 µM (≈ 0.52 µg/mL); in assay [2] (VRE, read-out: MIC) it was above 16 µM.

As for `Cc1c2oc3c(C)ccc(C(=O)N[C@@H]4C(=O)N[C@H](C(C)C)C(=O)N5CCC[C@H]5C(=O)N(C)CC(=O)N(C)[C@@H](C(C)C)C(=O)O[C@@H]4C)c3nc-2c(C(=O)N[C@@H]2C(=O)N[C@H](C(C)C)C(=O)N3CCC[C@H]3C(=O)N(C)CC(=O)N(C)[C@@H](C(C)C)C(=O)O[C@@H]2C)c(N)c1=O` [Dactinomycin] (I: T[dV]P[Sar][NMeV] / II: T[dV]P[Sar][NMeV]; ester I:1-I:C, II:1-II:C; linker I:N-II:N via Actinocin(9to1)), the MIC in assay [1] (Staphylococcus aureus) is above 16 µM; in [2], 0.5 µM (≈ 0.628 µg/mL).

For the compound colistin, the MICs of colistin in assay [9] is 0.25 µg/mL; in [10], 0.25 µg/mL; in assay [11], 0.25 µg/mL; in [12] it was 0.5 µg/mL; in assay [13] it was 1 µg/mL.

On to `CC(=O)[C@]1(O)Cc2c(O)c3c(c(O)c2[C@@H](O[C@H]2C[C@H](N)[C@H](O)[C@H](C)O2)C1)C(=O)c1ccccc1C3=O` [Idarubicin], for which the MBC in [1] (setting [16]) turned out to be 4 µM (≈ 1.99 µg/mL). In addition, the MIC in [1] (setting [15]) stood at 4 µM (≈ 1.99 µg/mL); in assay [2] (VRE, read-out: MIC), 4 µM (≈ 1.99 µg/mL).

With `Clc1ccccc1C(c1ccccc1)(c1ccccc1)n1ccnc1` [Clotrimazole], the MBC in assay [1] (setting [16]) was found to be 64 µM (≈ 22.1 µg/mL). The MIC is 4 µM (≈ 1.38 µg/mL) in assay [1] (setting [15]) and above 16 µM in [2] (VRE, read-out: MIC).

Turning to `CC(=O)NC[C@H]1CN(c2ccc(N3CCOCC3)c(F)c2)C(=O)O1` [linezolid], the “effect on number of planktonic persister cells” value in assay [3] is recorded as “minimal impact”. Moreover, in [14], the mice survival entry was “significantly increased mice survival”.

In general, MIC refers to the least concentration at which growth counts as inhibited. One may read the MBC as the lowest tested concentration that kills the bacteria rather than only halting them.
